Assay [1] concerns recombinant adenoviruses H5.010CBALP and H5.010CMVlacZ. Nature of the assay: Liver-directed adenovirus gene transfer and readministration (Example 3). Format: in vivo, C57BL/6 mice. How it is done:
Experiments substantially identical to those described in Example 2 above were conducted in which viral vectors were administered into the blood for introduction of the transgene into the liver (rather than intratracheal delivery into the lung).
Female C57BL/6 mice (6-8 weeks old) were injected with suspensions of H5.010CBALP (1×10^9 pfu in 50 μl of PBS) i.p. at day 0 and similarly with H5.010CMVlacZ at day 28. One group of such mice was used as a control. Another group of mice was acutely depleted of CD4^+ cells by i.p. injection of antibody to CD4^+ cells (GK1.5; ATCC No. TIB207, 1:10 dilution of ascites) at the time of the initial gene therapy (days −3, 0, and +3). A third group of mice was injected with IL-12 (2 μg, i.p. injections) at the time of the first administration of virus (days 0 and +1). A fourth group of mice was injected with gamma interferon (2 μg, i.p. injections) at the time of the first administration of virus (days 0 and +1) .
When mice were subsequently euthanized and necropsied at days 3, 28, or 31, liver tissues were prepared for cryosections according to the procedures used above for lung tissue in Example 2.
The cryosection results were substantially similar for liver-directed gene therapy according to this method as for the lung-directed therapy of Example 2 above. The results described below were obtained from the alkaline phosphatase histochemical stains (magnification ×100) or β-galactosidase X-gal stains (magnification ×100).

In assay [2] the test system is virus-infected C57SV cells. Kind of assay: CTL 51Cr release assay of restimulated splenocytes, IL-12 (Example 6B). Format: cell-based, C57BL/6 mice. The conditions noted are these: ALP virus, IL-12 i.p.; 51Cr release on virus-infected target cells. How it is done:
B. Splenocytes harvested from C57BL/6 mice (“B6”) and IL-12-treated C57BL/6 mice (“B6+IL12”) of Example 5 were restimulated in vitro 10 days after administration of H5.010CBALP with H5.010CMVlacZ for 5 days in DMEM supplemented with 5% FBS and […] 2-mercaptoethanol. These cells were tested for specific lysis on mock-infected (“mock”) and H5.010CBALP (“ALP”)-infected C57SV cells in a 6 hour ^51Cr release assay performed subsequently using the following ratios of effector to target cells (c57SV, H-2^b) in 200 μl DMEM with 10% FBS in V-bottom 96-well plates (E:T=50:1, 25:1, 12:1, 6:1, 5:1 and 3:1).
Prior to mixing with the effector cells, target cells (1×10^6) were labeled with 100 μCi of ^51Cr after a 24 hr-infection with H5.010CMVlacZ at an moi of 50 and used at 5×10^3 cells/well. After incubation for 6 hr, aliquots of 100 μl supernatant were removed for counting in a gamma counter.

The test system of assay [3] is recombinant adenoviruses H5.010CMVlacZ and H5.010CBALP. Kind of assay: Tail vein adenovirus gene transfer to mouse liver and readministration (Example 4). Format: in vivo, C57BL/6 mice. The conditions noted are these: liver, second virus day 28, read day 31. The protocol:
Recombinant virus (H5.010CMVLacZ or H5.010CBALP) was inactivated with ultraviolet light in the presence of 8-methoxypsoralen. Briefly, purified virus was resuspended in 0.33 mg/ml of 8-methoxypsoralen solution and exposed to a 365 nm UV light source on ice at 4 cm from the lamp filter for 30 min. The virus was then passed over a Sephadex G-50 column equilibrated with PBS. […] Suspensions of the viruses (2×10^9 pfu in 100 μl of PBS) were infused into the tail vein of 6 to 8 week old female mice as etailed in the following experiments. Each experiment was performed with a minimum of three mice in which transgene expression was quantified in a section of each of 5 lobes. The minimum analysis was 15 sections per experimental condition.
e. C57BL/6 mice were inoculated i.p. with 0.5 ml aliquots of 1:10 dilution of mouse ascites fluid containing the GK1.5 (anti-CD4 Mab, ATCC TIB207) at days −3, 0 and +3 as described in Example 2. This was equivalent to 100 μg of purified monoclonal antibody per injection. These CD4^+ cell-depleted mice were infected with H5.010CMVlacZ at day 0 and H5.010CBALP at day 28 (“CD4Ab mice”); and
f. […]
Mice from each group were subsequently euthanized and liver tissues evaluated for lacZ expression by X-gal histochemistry (magnification ×100) at day 3 and day 28; and for ALP expression by histochemical staining at day 31 (magnification ×100). […]

The subject of assay [4] is HT-2 cells. Nature of the assay: IL-2/IL-4 in supernatants of virus-restimulated MLN lymphocytes, HT-2 cell 3H-thymidine incorporation. Format: cell-based, C57BL/6 mice. The protocol: Lymphocytes from MLN of the control group and IL-12 treated group of C57BL/6 mice were harvested 28 days after administration of H5.010CBALP and restimulated in vitro with UV-inactivated H5.010CMVlacZ at 10 particles/cell for 24 hours. Cell-free supernatants were assayed for the presence of IL-2 or IL-4 on HT-2 cells (an IL-2 or IL-4-dependent cell line) [Yang I, cited above]. Presence of IFN-γ in the same lymphocyte culture supernatant was measured on L929 cells as described [Yang I, cited above]. Stimulation index (S.I.) was calculated by dividing ^3H-thymidine cpm incorporated into HT-2 cells cultured in supernatants of lymphocytes restimulated with virus by ^3H-thymidine cpm incorporated into HT-2 cells cultured in supernatants of lymphocytes incubated in antigen-free medium.

“Also recorded” adds a separate entry of the source.

In the case of interleukin-12 [IL-12], the “transgene expression after first administration of virus (ALP)” value in assay [1] (liver, days 3 and 28) is given as “diminished after about one month”. Also, the “gene transfer upon second administration of virus (lacZ)” value in assay [1] (liver, readministered day 28, read day 31) is listed as “some gene transfer to the liver via the blood was achieved”. The neutralizing antibodies entry in assay [1] (liver-directed gene therapy, Example 3) is given as “the level of neutralizing antibody was reduced”. Further, in assay [2], the “adenovirus-specific CTL activity” value is “did not increase adenovirus-specific CTL activity; also recorded: unaffected”. Further, in assay [3], the “readministration of virus (gene transfer)” value is listed as “insufficient to allow efficient gene transfer upon readministration of virus”. In addition, the “3H-Thymidine Incorporation (cpm ± SD), Medium” value in assay [4] (MLN lymphocytes 28 days after H5.010CBALP, antigen-free medium) turned out to be 247 ± 34 cpm. Further, the “3H-Thymidine Incorporation (cpm ± SD), H5.010CMVlacZ” value in assay [4] (MLN lymphocytes day 28, restimulated with UV-inactivated H5.010CMVlacZ 24 hours) is 5203 ± 28 cpm; in assay [4] (as E2, with anti-IL2 (1:5000)), 776 ± 50 cpm; in assay [4] (as E2, with anti-IL4 (1:5000)) it was 4608 ± 52 cpm. Besides, the “ratio of IL-2/IL-4” value in assay [4] (lymphocytes stimulated in vitro with virus, 3 without IL-12) is given as 6. Also, the entries for the “S.I. (stimulation index)” value in assay [4] (virus restimulated / antigen-free medium), in assay [4] (with anti-IL2 (1:5000)) and in assay [4] (with anti-IL4 (1:5000)) were 21.07, 3.14 and 18.66, respectively.

(Values after patent publication US6372208B1, “Method of reducing an immune response to a recombinant virus” (The Trustees of the University of Pennsylvania, priority 1996, dated 2002).)
